Assay results published in US12252524B2, “GIP/GLP1 co-agonist compounds” (Eli Lilly and Company, priority 2018, dated 2025).
Numbered stars: 1 amine (or outer) side, 2 acyl side, 3 side chain; on linkers, the order of the positions; unused ones are H or OH. Square brackets hold non-standard residues; d marks the D form. Side chains are listed from the residue outwards. Peptide text beside a SMILES is read from it. * marks the point of attachment. C20 diacid = O=C(O)CCCCCCCCCCCCCCCCCCC(=O)*; αMePhe(2-F) = C[C@](N)(Cc1ccccc1F)C(=O)O; γGlu = O=C(O)[C@H](CCC(=O)[*:2])N[*:1]; Desaminotyrosyl = O=C(CCc1ccc(O)cc1)*; αMeF = C[C@](N)(Cc1ccccc1)C(=O)O; αMeL = CC(C)C[C@](C)(N)C(=O)O; AEEA = NCCOCCOCC(=O)O; Aib = CC(C)(N)C(=O)O

Tests used:
human Gcg receptor = molecular target: T1, human Gcg receptor (Homo sapiens, UniProt P47871); assay: [125I]-Glucagon binding (SPA), human Gcg receptor; details: read-out: hGLcgR Ki, nM (SEM, n)
T1 construct: expressed in transfected cells; crude membranes
Description: (§1) Two methods are used for the preparation of crude cell membranes.
(§2) Method 1: Frozen cell pellets are lysed on ice in hypotonic buffer containing 50 mM Tris HCl, pH 7.5, and Roche Complete™ Protease Inhibitors with EDTA. The cell suspension is disrupted using a glass Potter-Elvehjem homogenizer fitted with a Teflon® pestle for 25 strokes. The homogenate is centrifuged at 4° C. at 1100×g for 10 minutes. The supernatant is collected and stored on ice while the pellets are resuspended in homogenization buffer and rehomogenized as described above. The homogenate is centrifuged at 1100×g for 10 minutes. The second supernatant is combined with the first supernatant and centrifuged at 35000×g for 1 hour at 4° C. The resulting membrane pellet is resuspended in homogenization buffer containing protease inhibitors at approximately 1 to 3 mg/mL, quick frozen in liquid nitrogen and stored as aliquots in a−80° C. freezer until use.
(§3) Method 2: Frozen cell pellets are lysed on ice in hypotonic buffer containing 50 mM Tris HCl, pH 7.5, 1 mM MgCl2, Roche Complete™ EDTA-free Protease Inhibitors and 25 units/ml DNAse I (Invitrogen). The cell suspension is disrupted using a glass Potter-Elvehjem homogenizer fitted with a Teflon® pestle for 20 to 25 strokes. The homogenate is centrifuged at 4° C. at 1800×g for 15 minutes. The supernatant is collected and stored on ice while the pellets are resuspended in homogenization buffer (without DNAse I) and rehomogenized as described above. The homogenate is centrifuged at 1800×g for 15 minutes. The second supernatant is combined with the first supernatant and centrifuged an additional time at 1800×g for 15 minutes. The overall supernatant is then centrifuged at 25000×g for 30 minutes at 4° C. The resulting membrane pellet is resuspended in homogenization buffer (without DNAse I) containing protease inhibitors at approximately 1 to 3 mg/mL and stored as aliquots in a−80° C. freezer until use.
The human Gcg receptor binding assays are performed using a Scintillation Proximity Assay (SPA) format with wheat germ agglutinin (WGA) beads (Perkin Elmer). The binding buffer contains 25 mM 4-(2-hydroxyethyl)-1-piperazineethanesulfonic acid (HEPES), pH 7.4, 2.5 mM CaCl2, 1 mM MgCl2, 0.1% (w/v) bacitracin (Research Products), 0.003% (w/v) Polyoxyethylenesorbitan monolaurate (TWEEN©-20), and Roche Complete™ Protease Inhibitors without EDTA. […] Plates are sealed and mixed on a plate shaker (setting 6) for 1 minute and read with a PerkinElmer Trilux MicroBeta© scintillation counter after 12 hours of incubation/settling time at room temperature.
(§4) Data are analyzed using four-parameter (curve maximum, curve minimum, IC50, Hill slope) nonlinear regression routines (Genedata Screener, version 12.0.4, Genedata AG, Basal, Switzerland). […] Values for Ki are reported as the geometric mean, with error expressed as the standard error of the mean (SEM) and n is equal to the number of independent replicates (determined in assays performed on different days). […] The Ki Ratio is a rapid indication of the apparent affinity of a peptide compared to the native control peptide. […] SEM is only calculated when n=2 or greater non-qualified results exist. Means are expressed as GeoMetric means with the standard error of the mean (SEM) and the number of replicates (n) indicated in parenthesis.

human GLP-1R = human GLP-1R (Homo sapiens, UniProt P43220); assay: [125I]-GLP-1 binding (SPA), human GLP-1 receptor; design: expressed in transfected cells; crude membranes; details: read-out: hGLP1R Ki, (nM) (SEM, n)
Description: as §1, §2, §3
The binding buffer contains 25 mM HEPES, pH 7.4, 2.5 mM CaCl2, 1 mM MgCl2, 0.1% (w/v) bacitracin, 0.003% (w/v) TWEEN©-20, and Roche Complete™ Protease Inhibitors without EDTA.
as §4

[1] = molecular target: human GLP-1 receptor (GLP-1R) (Homo sapiens, UniProt P43220); assay: cAMP pharmacological functional assay in presence of casein, hGLP-1R; assay type: cell-based; details: HEK293 cells expressing hGLP-1R, 0.1% Casein, geometric mean; read-out: hGLP1R cAMP Rel EC50 nM (SEM, n)
human GIP receptor = molecular target: T2, human GIP receptor (Homo sapiens, UniProt P48546); assay: [125I]-GIP binding (SPA), human GIP receptor; details: read-out: hGIPR Ki, nM (SEM, n)
T2 construct: expressed in transfected cells; crude membranes
T2 sequence (P48546 22-466): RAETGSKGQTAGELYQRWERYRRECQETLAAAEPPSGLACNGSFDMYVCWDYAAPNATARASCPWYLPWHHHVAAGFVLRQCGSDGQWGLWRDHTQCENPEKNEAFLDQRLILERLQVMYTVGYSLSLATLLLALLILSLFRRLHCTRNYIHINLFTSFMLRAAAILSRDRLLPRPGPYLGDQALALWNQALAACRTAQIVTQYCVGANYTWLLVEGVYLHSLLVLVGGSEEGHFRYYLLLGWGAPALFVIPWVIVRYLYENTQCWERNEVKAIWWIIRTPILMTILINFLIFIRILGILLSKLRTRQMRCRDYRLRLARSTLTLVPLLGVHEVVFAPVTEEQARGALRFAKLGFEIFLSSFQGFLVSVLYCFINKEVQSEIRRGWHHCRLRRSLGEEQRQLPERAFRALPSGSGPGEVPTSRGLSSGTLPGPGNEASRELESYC
Description: as §1, §2, §3
The binding buffer contains 25 mM HEPES, pH 7.4, 2.5 mM CaCl2, 1 mM MgCl2, 0.1% (w/v) bacitracin, 0.003% (w/v) TWEEN©-20, and Roche Complete™ Protease Inhibitors without EDTA. Peptides and GIP are thawed and 3 fold serially diluted in 100% DMSO (10 point concentration response curves). […] Plates are sealed and mixed on a plate shaker (setting 6) for 1 minute and read with a PerkinElmer Trilux MicroBeta© scintillation counter after 2.5 to 12 hours of incubation/settling time at room temperature.
as §4

[2] = molecular target: T3, gastric inhibitory peptide receptor (GIPR) (Homo sapiens, UniProt P48546); assay: cAMP pharmacological functional assay in presence of casein, hGIPR; assay type: cell-based; details: HEK293 cells expressing hGIPR, 0.1% Casein, geometric mean; read-out: hGIPR cAMP Rel EC50 nM (SEM, n)
T3 sequence (P48546 22-466): T2 sequence (P48546 22-466)

Sequence of human GLP-1R (P43220 24-463): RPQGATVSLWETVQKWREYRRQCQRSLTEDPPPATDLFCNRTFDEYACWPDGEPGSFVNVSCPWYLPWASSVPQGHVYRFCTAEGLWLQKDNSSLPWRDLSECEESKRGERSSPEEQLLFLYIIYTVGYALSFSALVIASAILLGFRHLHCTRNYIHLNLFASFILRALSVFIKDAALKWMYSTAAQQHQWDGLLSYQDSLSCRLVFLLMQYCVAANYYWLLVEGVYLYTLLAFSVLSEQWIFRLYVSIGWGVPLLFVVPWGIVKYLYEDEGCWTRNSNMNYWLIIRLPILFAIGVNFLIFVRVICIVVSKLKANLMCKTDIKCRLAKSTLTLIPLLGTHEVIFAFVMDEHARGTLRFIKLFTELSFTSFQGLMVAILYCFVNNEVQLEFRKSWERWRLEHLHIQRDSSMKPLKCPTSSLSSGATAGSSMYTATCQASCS
Sequence of human GLP-1 receptor (GLP-1R) (P43220 24-463): as above
T1 sequence (P47871 26-477): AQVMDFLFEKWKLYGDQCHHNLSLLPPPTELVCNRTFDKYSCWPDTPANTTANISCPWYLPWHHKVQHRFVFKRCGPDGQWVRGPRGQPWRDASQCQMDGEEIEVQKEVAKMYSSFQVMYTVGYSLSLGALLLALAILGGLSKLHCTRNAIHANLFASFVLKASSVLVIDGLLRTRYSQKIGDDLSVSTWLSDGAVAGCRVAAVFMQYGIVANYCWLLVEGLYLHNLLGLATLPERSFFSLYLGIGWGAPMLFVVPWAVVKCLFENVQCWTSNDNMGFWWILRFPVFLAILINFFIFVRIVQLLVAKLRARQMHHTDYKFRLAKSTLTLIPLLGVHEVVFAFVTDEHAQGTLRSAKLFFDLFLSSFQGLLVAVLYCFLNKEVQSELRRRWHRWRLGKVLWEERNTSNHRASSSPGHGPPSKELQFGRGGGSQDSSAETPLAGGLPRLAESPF

Compound	Ki (human Gcg receptor)	Ki (human GLP-1R)	EC50 [1]	Ki (human GIP receptor)	EC50 [2]
CC[C@H](C)[C@H](NC(=O)[C@H](CC(C)C)NC(=O)[C@H](Cc1ccc(O)cc1)NC(=O)[C@H](CCC(=O)O)NC(=O)[C@@H](NC(=O)[C@H](Cc1ccccc1)NC(=O)[C@H](CCC(=O)O)NC(=O)C(C)(C)NC(=O)[C@H](CCC(N)=O)NC(=O)[C@H](C)NC(=O)[C@H](CCCCNC(=O)COCCOCCNC(=O)COCCOCCNC(=O)CC[C@H](NC(=O)CCCCCCCCCCCCCCCCCCC(=O)O)C(=O)O)NC(=O)[C@H](CCC(=O)O)NC(=O)[C@H](CC(=O)O)NC(=O)[C@H](CC(C)C)NC(=O)[C@](C)(CC(C)C)NC(=O)[C@@H](NC(=O)[C@H](CO)NC(=O)[C@H](Cc1ccc(O)cc1)NC(=O)[C@H](CC(=O)O)NC(=O)[C@H](CO)NC(=O)[C@@H](NC(=O)[C@](C)(Cc1ccccc1F)NC(=O)[C@@H](NC(=O)CNC(=O)[C@H](CCC(=O)O)NC(=O)C(C)(C)NC(=O)[C@@H](N)Cc1c[nH]cn1)[C@@H](C)O)[C@@H](C)O)[C@@H](C)CC)[C@@H](C)CC)C(=O)N[C@@H](CCC(=O)O)C(=O)NCC(=O)NCC(=O)N1CCC[C@H]1C(=O)N[C@@H](CO)C(=O)N[C@@H](CO)C(=O)NCC(=O)N[C@@H](C)C(=O)N1CCC[C@H]1C(=O)N1CCC[C@H]1C(=O)N1CCC[C@H]1C(=O)N[C@@H](CO)C(N)=O [Example 163] (H-H[Aib]EGT[αMePhe(2-F)]TSDYSI[αMeL]LDEK([AEEA-AEEA-γGlu-C20 diacid])AQ[Aib]EFIEYLIEGGPSSGAPPPS-NH2)	117 nM	10.8 nM	0.0316 nM	0.116 nM	0.121 nM
CC[C@H](C)[C@H](NC(=O)[C@H](CC(C)C)NC(=O)[C@H](Cc1ccc(O)cc1)NC(=O)[C@H](CCC(=O)O)NC(=O)[C@@H](NC(=O)[C@H](Cc1ccccc1)NC(=O)[C@H](C)NC(=O)C(C)(C)NC(=O)[C@H](CCC(N)=O)NC(=O)[C@H](C)NC(=O)[C@H](CCCCNC(=O)COCCOCCNC(=O)COCCOCCNC(=O)CC[C@H](NC(=O)CCCCCCCCCCCCCCCCCCC(=O)O)C(=O)O)NC(=O)[C@H](CCC(=O)O)NC(=O)[C@H](CC(=O)O)NC(=O)[C@H](CC(C)C)NC(=O)C(C)(C)NC(=O)[C@@H](NC(=O)[C@H](CO)NC(=O)[C@H](Cc1ccc(O)cc1)NC(=O)[C@H](CC(=O)O)NC(=O)[C@H](CO)NC(=O)[C@@H](NC(=O)[C@](C)(Cc1ccccc1)NC(=O)[C@@H](NC(=O)CNC(=O)[C@H](CCC(=O)O)NC(=O)C(C)(C)NC(=O)CCc1ccc(O)cc1)[C@@H](C)O)[C@@H](C)O)[C@@H](C)CC)[C@@H](C)CC)C(=O)N[C@@H](CCC(=O)O)C(=O)NCC(=O)NCC(=O)N1CCC[C@H]1C(=O)N[C@@H](CO)C(=O)N[C@@H](CO)C(=O)NCC(=O)N[C@@H](C)C(=O)N1CCC[C@H]1C(=O)N1CCC[C@H]1C(=O)N1CCC[C@H]1C(=O)N[C@@H](CO)C(N)=O [Example 133] (Desaminotyrosyl-[Aib]EGT[αMeF]TSDYSI[Aib]LDEK([AEEA-AEEA-γGlu-C20 diacid])AQ[Aib]AFIEYLIEGGPSSGAPPPS-NH2)	216 nM	11.4 nM	0.0436 nM	0.157 nM	0.0879 nM
CC[C@H](C)[C@H](NC(=O)[C@H](CC(C)C)NC(=O)[C@H](Cc1ccc(O)cc1)NC(=O)[C@H](CCC(=O)O)NC(=O)[C@@H](NC(=O)[C@H](Cc1ccccc1)NC(=O)[C@H](C)NC(=O)C(C)(C)NC(=O)[C@H](CCC(N)=O)NC(=O)[C@H](C)NC(=O)[C@H](CCCCNC(=O)COCCOCCNC(=O)COCCOCCNC(=O)CC[C@H](NC(=O)CCCCCCCCCCCCCCCCCCC(=O)O)C(=O)O)NC(=O)[C@H](CCCCN)NC(=O)[C@H](CC(=O)O)NC(=O)[C@H](CC(C)C)NC(=O)[C@H](CC(C)C)NC(=O)[C@@H](NC(=O)[C@H](CO)NC(=O)[C@H](Cc1ccc(O)cc1)NC(=O)[C@H](CC(=O)O)NC(=O)[C@H](CO)NC(=O)[C@@H](NC(=O)[C@H](Cc1ccccc1)NC(=O)[C@@H](NC(=O)CNC(=O)[C@H](CCC(=O)O)NC(=O)[C@H](C)NC(=O)[C@@H](Cc1ccc(O)cc1)NC(C)=O)[C@@H](C)O)[C@@H](C)O)[C@@H](C)CC)[C@@H](C)CC)C(=O)N[C@@H](CCC(=O)O)C(=O)NCC(=O)NCC(=O)N1CCC[C@H]1C(=O)N[C@@H](CO)C(=O)N[C@@H](CO)C(=O)NCC(=O)N[C@@H](C)C(=O)N1CCC[C@H]1C(=O)N1CCC[C@H]1C(=O)N1CCC[C@H]1C(=O)N[C@@H](CO)C(N)=O [Example 79]	429 nM	2.69 nM	2.02 nM	0.0313 nM	0.0732 nM
CC[C@H](C)[C@H](NC(=O)[C@H](CC(C)C)NC(=O)[C@H](Cc1ccc(O)cc1)NC(=O)[C@H](CCC(=O)O)NC(=O)[C@@H](NC(=O)[C@H](Cc1ccccc1)NC(=O)[C@H](C)NC(=O)C(C)(C)NC(=O)[C@H](CCC(N)=O)NC(=O)[C@H](C)NC(=O)[C@H](CCCCNC(=O)COCCOCCNC(=O)COCCOCCNC(=O)CC[C@H](NC(=O)CCCCCCCCCCCCCCCCCCC(=O)O)C(=O)O)NC(=O)[C@H](CCCCN)NC(=O)[C@H](CC(=O)O)NC(=O)[C@H](CC(C)C)NC(=O)[C@H](CC(C)C)NC(=O)[C@@H](NC(=O)[C@H](CO)NC(=O)[C@@H](NC(=O)[C@H](CC(=O)O)NC(=O)[C@H](CO)NC(=O)[C@@H](NC(=O)[C@](C)(Cc1ccccc1)NC(=O)[C@@H](NC(=O)CNC(=O)[C@H](CCC(=O)O)NC(=O)C(C)(C)NC(=O)[C@@H](N)Cc1ccc(O)cc1)[C@@H](C)O)[C@@H](C)O)[C@@H](C)CC)[C@@H](C)CC)[C@@H](C)CC)C(=O)N[C@@H](CCC(=O)O)C(=O)NCC(=O)NCC(=O)N1CCC[C@H]1C(=O)N[C@@H](CO)C(=O)N[C@@H](CO)C(=O)NCC(=O)N[C@@H](C)C(=O)N1CCC[C@H]1C(=O)N1CCC[C@H]1C(=O)N1CCC[C@H]1C(=O)N[C@@H](CO)C(N)=O [Example 127] (H-Y[Aib]EGT[αMeF]TSDISILLDKK([AEEA-AEEA-γGlu-C20 diacid])AQ[Aib]AFIEYLIEGGPSSGAPPPS-NH2; N-terminus assumed)	43.6 nM	1.86 nM	0.145 nM	0.126 nM	0.158 nM
